US9751861B2, “N1-(3,3,3-trifluoro-2-hydroxo-2-methylpropionyl)-piperidine derivatives as inhibitors of pyruvate dehydrogenase kinase” (MERCK PATENT GMBH, priority 2013, dated 2017)

What was measured:
PDH-Elalpha (pSer300) = assay: Cellular immunofluorescence assay in HEK293T cells; format: cell-based; details: Homo sapiens, HEK-293T, 5 hours incubation, anti-PDH-E1alpha pSer300 immunofluorescence, read-out: IC50 (cell data)
In short: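 HEK293T cells were exposed to compound for 5 hours, then fixed, permeabilised and immunostained for PDH-Elalpha pSer300 with Hoechst counterstain, read by laser scanning cytometry. Percent effect was normalized to a pharmacological inhibitor control and fitted to dose-response curves.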

human PDHK2 (12-407) = target: T1, human PDHK2 (12-407) (Homo sapiens, UniProt Q15119); assay: Isothermal titration calorimetry (ITC) binding; details: 30° C., pH 7.5
T1 construct: The human PDHK2 (12-407) was produced in E. coli; His-tag (cleaved yes); made in house; host or cells: E. coli
In short: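 Untagged PDHK2 (12-407) from E. coli at 50 μM titrated into 5 μM compound at 30° C in pH 7.5 HEPES/KCl/MgCl2/phosphate buffer, ≤1% DMSO. One-site fit gave KA, ΔH^obs and N after heat-of-dilution correction; protein concentration referenced to a standard inhibitor and compound concentration adjusted to 1:1 stoichiometry.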

PDHK2 = target: T2, PDHK2 (Homo sapiens, UniProt Q15119); assay: Biochemical activity testing of PDHK2: PDC inactivation assay; details: human rec PDHK2, PDC from porcine heart, ATP 5 μM; read-out: IC50 PDHK2 (enzyme assay)
T2 construct: purchased Carna Bioscience
In short: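 Human recombinant PDHK2 (137 nM final) preincubated 30 min at RT with porcine heart PDC (20 mU/ml) and compound in pH 7.0 phosphate buffer, then phosphorylated with 5 μM ATP for 30 min at 37 °C. Residual PDC activity read as NADH fluorescence increase (Ex 340/Em 450) over 45 min; inhibitor-free reaction as full value, 3 mM DCA as zero, IC50 derived.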

Row | Structure (SMILES) | IC50 (PDH-Elalpha (pSer300)) [nM] | Kd (human PDHK2 (12-407)) [nM] | IC50 (PDHK2) [nM]
1 | C[C@@](O)(C(=O)N1CCC(c2ccnn2-c2ccc(F)cc2F)CC1)C(F)(F)F [Compound A26, (R)-1-{4-[2-(2,4-Difluoro-phenyl)-2H-pyrazol-3-yl]-piperidin-1-yl}-3,3,3-trifluoro-2-hydroxy-2-methyl-propan-1-one] | 300 to 3000 | < 300 | < 300
2 | C[C@@](O)(C(=O)N1CCC(c2ccnn2-c2cccc(C#N)c2)CC1)C(F)(F)F [Compound A8, 3-{5-[1-((R)-3,3,3-Trifluoro-2-hydroxy-2-methyl-propionyl)-piperidin-4-yl]-pyrazol-1-yl}-benzonitrile] | 300 to 3000 | < 300 | 300 to 3000
3 | CCc1ccc(-n2nccc2C2CCN(C(=O)[C@@](C)(O)C(F)(F)F)CC2)cc1 [Compound A24, (R)-1-{4-[2-(4-Ethyl-phenyl)-2H-pyrazol-3-yl]-piperidin-1-yl}-3,3,3-trifluoro-2-hydroxy-2-methyl-propan-1-one] | 300 to 3000 | < 300 | < 300
4 | C[C@@](O)(C(=O)N1CCC(c2ccnn2-c2ccccc2Cl)CC1)C(F)(F)F [Compound A11, (R)-1-{4-[2-(2-Chloro-phenyl)-2H-pyrazol-3-yl]-piperidin-1-yl}-3,3,3-trifluoro-2-hydroxy-2-methyl-propan-1-one] | 300 to 3000 | < 300 | < 300
5 | CC(C)(C)c1ccc(-n2nccc2C2CCN(C(=O)[C@@](C)(O)C(F)(F)F)CC2)cc1 [Compound A21, (R)-1-{4-[2-(4-tert-Butyl-phenyl)-2H-pyrazol-3-yl]-piperidin-1-yl}-3,3,3-trifluoro-2-hydroxy-2-methyl-propan-1-one] | 300 to 3000 | < 300 | 300 to 3000
6 | C[C@@](O)(C(=O)N1CCC(c2ccnn2-c2ccc(Cl)cc2F)CC1)C(F)(F)F [Compound A23, (R)-1-{4-[2-(4-Chloro-2-fluoro-phenyl)-2H-pyrazol-3-yl]-piperidin-1-yl}-3,3,3-trifluoro-2-hydroxy-2-methyl-propan-1-one] | 300 to 3000 | < 300 | < 300
7 | CC(C)(O)c1ccc(-n2nccc2C2CCN(C(=O)[C@@](C)(O)C(F)(F)F)CC2)c(F)c1 [Compound A92, (R)-3,3,3-Trifluoro-1-[4-[2-[2-fluoro-4-(1-hydroxy-1-methyl-ethyl)phenyl]-2H-pyrazol-3-yl]-1-piperidyl]-2-hydroxy-2-methyl-propan-1-one] | 300 to 3000 | < 300 | 300 to 3000
8 | Cc1csc(-n2nccc2C2CCN(C(=O)[C@@](C)(O)C(F)(F)F)CC2)n1 [Compound A86, (R)-3,3,3-Trifluoro-2-hydroxy-2-methyl-1-[4-[2-(4-methylthiazol-2-yl)-2H-pyrazol-3-yl]-1-piperidyl]propan-1-one] | 3000 to 50000 | < 300 | 300 to 3000
9 | C[C@@](O)(C(=O)N1CCC(c2ccnn2-c2ccc(OC(F)(F)F)cc2)CC1)C(F)(F)F [Compound A95, (R)-3,3,3-Trifluoro-2-hydroxy-2-methyl-1-[4-[2-[4-(trifluoromethoxy)-phenyl]-2H-pyrazol-3-yl]-1-piperidyl]propan-1-one] | 300 to 3000 | < 300 | < 300
10 | CC(C)c1ccc(-n2nccc2C2CCN(C(=O)[C@@](C)(O)C(F)(F)F)CC2)cc1 [Compound A22, (R)-3,3,3-Trifluoro-2-hydroxy-1-{4-[2-(4-isopropyl-phenyl)-2H-pyrazol-3-yl]-piperidin-1-yl}-2-methyl-propan-1-one] | 300 to 3000 | < 300 | 300 to 3000

Results, then the compound that gave them:

Row | IC50 (PDH-Elalpha (pSer300)) [nM] | Kd (human PDHK2 (12-407)) [nM] | IC50 (PDHK2) [nM] | Structure (SMILES)
11 | 300 to 3000 | < 300 | < 300 | C[C@@](O)(C(=O)N1CCC(c2ccnn2-c2ccc(F)cc2Cl)CC1)C(F)(F)F [Compound A39, (R)-1-{4-[2-(2-Chloro-4-fluoro-phenyl)-2H-pyrazol-3-yl]-piperidin-1-yl}-3,3,3-trifluoro-2-hydroxy-2-methyl-propan-1-one]
12 | 300 to 3000 | < 300 | 300 to 3000 | C[C@@](O)(C(=O)N1CCC(c2cc(C(F)(F)F)nn2-c2ccccc2)CC1)C(F)(F)F [Compound A43, (R)-1-[4-(2-Phenyl-5-trifluoromethyl-2H-pyrazol-3-yl)-piperidin-1-yl]-3,3,3-trifluoro-2-hydroxy-2-methyl-propan-1-one]
13 | 300 to 3000 | < 300 | 300 to 3000 | COc1ccc(-n2cncc2C2CCN(C(=O)[C@@](C)(O)C(F)(F)F)CC2)cc1 [Compound A131, (R)-3,3,3-Trifluoro-2-hydroxy-1-{4-[3-(4-methoxy-phenyl)-3 H-imidazol-4-yl]-piperidin-1-yl}-2-methyl-propan-1-one]
14 | 300 to 3000 | < 300 | < 300 | COc1ccc(-n2nccc2C2CCN(C(=O)[C@@](C)(O)C(F)(F)F)CC2)cc1 [Compound A2, (R)-3,3,3-Trifluoro-2-hydroxy-1-{4-[2-(4-methoxy-phenyl)-2H-pyrazol-3-yl]-piperidin-1-yl}-2-methyl-propan-1-one]
15 | 3000 to 50000 | < 300 | 300 to 3000 | Cn1cc(-n2nccc2C2CCN(C(=O)[C@@](C)(O)C(F)(F)F)CC2)cn1 [Compound A85, (R)-3,3,3-Trifluoro-2-hydroxy-2-methyl-1-[4-[2-(1-methylpyrazol-4-yl)-2H-pyrazol-3-yl]-1-piperidyl]propan-1-one]
16 | < 300 | < 300 | < 300 | C[C@@H]1CN(C(=O)[C@@](C)(O)C(F)(F)F)CC[C@@H]1c1ccnn1-c1ccc(Cl)cc1 [Compound A119, (R)-1-{(3S,4S)-4-[2-(4-Chloro-phenyl)-2H-pyrazol-3-yl]-3-methyl-piperidin-1-yl}-3,3,3-trifluoro-2-hydroxy-2-methyl-propan-1-one]
17 | 300 to 3000 | < 300 | 300 to 3000 | C[C@@](O)(C(=O)N1CCC(c2ccnn2-c2ccc(C(F)(F)F)cc2F)CC1)C(F)(F)F [Compound A88, (R)-3,3,3-Trifluoro-1-[4-[2-[2-fluoro-4-(trifluoromethyl)phenyl]-2H-pyrazol-3-yl]-1-piperidyl]-2-hydroxy-2-methyl-propan-1-one]
18 | 300 to 3000 | < 300 | < 300 | Cc1cc(C2CCN(C(=O)[C@@](C)(O)C(F)(F)F)CC2)n(-c2ccc(F)cc2F)n1 [Compound A97, (R)-1-{4-[2-(2,4-Difluoro-phenyl)-5-methyl-2H-pyrazol-3-yl]-piperidin-1-yl}-3,3,3-trifluoro-2-hydroxy-2-methyl-propan-1-one]
19 | 300 to 3000 | < 300 | < 300 | C[C@@H]1CN(C(=O)[C@@](C)(O)C(F)(F)F)CC[C@@H]1c1ccnn1[C@H]1CC[C@@H](O)CC1 [Compound A120, (R)-3,3,3-Trifluoro-2-hydroxy-1-{(3S,4S)-4-[2-(4-hydroxy-cyclohexyl)-2H-pyrazol-3-yl]-3-methyl-piperidin-1-yl}-2-methyl-propan-1-one]
20 | 3000 to 50000 | < 300 | 300 to 3000 | COCCn1nccc1C1CCN(C(=O)[C@@](C)(O)C(F)(F)F)CC1 [Compound A78, (R)-3,3,3-Trifluoro-2-hydroxy-1-[4-[2-(2-methoxyethyl)-2H-pyrazol-3-yl]-1-piperidyl]-2-methyl-propan-1-one]
21 | 300 to 3000 | < 300 | 300 to 3000 | C[C@@](O)(C(=O)N1CCC(c2ccnn2-c2ccc(C#N)cc2)CC1)C(F)(F)F [Compound A9, 4-{5-[1-((R)-3,3,3-Trifluoro-2-hydroxy-2-methyl-propionyl)-piperidin-4-yl]-pyrazol-1-yl}-benzonitrile]
22 | 300 to 3000 | < 300 | 300 to 3000 | Cc1ccccc1-n1nccc1C1CCN(C(=O)[C@@](C)(O)C(F)(F)F)CC1 [Compound A5, (R)-3,3,3-Trifluoro-2-hydroxy-2-methyl-1-[4-(2-o-tolyl-2H-pyrazol-3-yl)-piperidin-1-yl]-propan-1-one]
23 | 300 to 3000 | < 300 | 300 to 3000 | C[C@@](O)(C(=O)N1CCC(c2ccnn2-c2ccc(Cl)c(F)c2)CC1)C(F)(F)F [Compound A100, (R)-1-{4-[2-(4-Chloro-3-fluoro-phenyl)-2H-pyrazol-3-yl]-piperidin-1-yl}-3,3,3-trifluoro-2-hydroxy-2-methyl-propan-1-one]
24 | 300 to 3000 | < 300 | < 300 | C[C@@H]1CN(C(=O)[C@@](C)(O)C(F)(F)F)CC[C@@H]1c1ccnn1-c1ccc(F)cn1 [Compound A118, (R)-3,3,3-Trifluoro-1-{(3S,4S)-4-[2-(5-fluoro-pyridin-2-yl)-2H-pyrazol-3-yl]-3-methyl-piperidin-1-yl}-2-hydroxy-2-methyl-propan-1-one]
25 | 300 to 3000 | < 300 | < 300 | Cc1cc(C2CCN(C(=O)[C@@](C)(O)C(F)(F)F)CC2)n(-c2ccc(F)cc2)n1 [Compound A41, (R)-1-{4-[2-(4-Fluoro-phenyl)-5-methyl-2H-pyrazol-3-yl]-piperidin-1-yl}-3,3,3-trifluoro-2-hydroxy-2-methyl-propan-1-one]
